Assay results: US9388139B2, “Derivatives of celeboxib, use thereof and preparation thereof” (German University, priority 2011, dated 2016)

Legend:
[1] = biological target: COX1 (Ovis aries (Sheep), UniProt P05979); assay: COX-1 activity, colorimetric assay; assay type: biochemical, ovine; settings: screening dose 100 μM; read-out: IC50 μM against COX1
Method: Compounds according to the present disclosure were tested for their in vitro ability to inhibit recombinant human PDE5, COX1 and COX2 enzymes at screening doses of 50, 100 and 100 μM respectively.
COX-1 and COX-2 activities were measured using purified ovine COX-1 and COX-2 with colorimetric assay kits obtained from Cayman Chemical Co. (Ann Arbor, Mich.). The activities of COX-1 and COX-2 were measured after the addition of arachidonic acid and incubation at 25° C. for 5 min by absorbance at 590 nm as specified by the manufacturer.

[2] = tested on: human breast MDA-MB-231 tumor cell line; assay: Tumor cell growth assay (Cell Titer Glo); assay type: cell-based; settings: MDA-MB-231, 72 hours, read-out: IC50 μM against MDA-MB-231
[3] = biological target: PDE2A (Homo sapiens (Human), UniProt O00408); assay: PDE isozyme selectivity, IMAP assay; assay type: biochemical
Method: PDE activity was measured using the IMAP fluorescence polarization assay (Molecular Devices) in which binding of hydrolyzed cyclic nucleotide substrate to immobilized metal coordination complexes increases fluorescence polarization (FP). Tetramethylrhodamine (TAMRA)-cGMP and fluorescein-cAMP were used as substrates, each at final concentration of 50 nmol/L. The PDE assay was done according to the manufacturer's specifications using either whole cell lysates or recombinant enzymes.

[4] = tested on: human tumor cell lines of different origins; assay: Tumor cell growth inhibition panel, overall; assay type: cell-based; settings: in words; including the adriamycin resistant cell line ADR/NCl-RES
Method: Thus, compound 12 is able to show broad spectrum tumor cell growth inhibitory activity independent of cyclooxygenase inhibition, whereas PDE5 may be the major contributor to such activity.
The human tumor cell lines were purchased from the American Type Culture Collection (Mansassas, Va.) and maintained in RPMI-1640+2.0 g/L glucose pH 7.4+5% FBS+4 mM glutamine (complete growth medium), incubated at 37° C. in 5% CO2, and passaged at subconfluent density. The human fetal colon FHC cells were cultured in DMEM:F12 medium supplemented with 10% FBS, cholera toxin (10 ng/mL), 5 μg/ml transferrin, 5 μg/ml insulin, and 100 ng/ml hydrocortisone. The passage number was routinely limited to approximately 20 and morphology monitored with each passage, but no additional authentication of the cell lines was performed.
Cells were plated in 96-well microtiter plates at a density of 5,000 cells per well and allowed to adhere overnight prior to treatment. Cells were treated with a 2-log concentration range of either SS or SBA and incubated for an additional 72 hours. For siRNA assays, cells were transfected in OptiMEM media with 0.5% SureFECT transfection reagent and 200 nmol/L of either negative control or PDE5 siRNA and incubated at 37° C. for 24 h prior to treatment. […]

PDE2A, sequence (O00408 whole entry, species assumed): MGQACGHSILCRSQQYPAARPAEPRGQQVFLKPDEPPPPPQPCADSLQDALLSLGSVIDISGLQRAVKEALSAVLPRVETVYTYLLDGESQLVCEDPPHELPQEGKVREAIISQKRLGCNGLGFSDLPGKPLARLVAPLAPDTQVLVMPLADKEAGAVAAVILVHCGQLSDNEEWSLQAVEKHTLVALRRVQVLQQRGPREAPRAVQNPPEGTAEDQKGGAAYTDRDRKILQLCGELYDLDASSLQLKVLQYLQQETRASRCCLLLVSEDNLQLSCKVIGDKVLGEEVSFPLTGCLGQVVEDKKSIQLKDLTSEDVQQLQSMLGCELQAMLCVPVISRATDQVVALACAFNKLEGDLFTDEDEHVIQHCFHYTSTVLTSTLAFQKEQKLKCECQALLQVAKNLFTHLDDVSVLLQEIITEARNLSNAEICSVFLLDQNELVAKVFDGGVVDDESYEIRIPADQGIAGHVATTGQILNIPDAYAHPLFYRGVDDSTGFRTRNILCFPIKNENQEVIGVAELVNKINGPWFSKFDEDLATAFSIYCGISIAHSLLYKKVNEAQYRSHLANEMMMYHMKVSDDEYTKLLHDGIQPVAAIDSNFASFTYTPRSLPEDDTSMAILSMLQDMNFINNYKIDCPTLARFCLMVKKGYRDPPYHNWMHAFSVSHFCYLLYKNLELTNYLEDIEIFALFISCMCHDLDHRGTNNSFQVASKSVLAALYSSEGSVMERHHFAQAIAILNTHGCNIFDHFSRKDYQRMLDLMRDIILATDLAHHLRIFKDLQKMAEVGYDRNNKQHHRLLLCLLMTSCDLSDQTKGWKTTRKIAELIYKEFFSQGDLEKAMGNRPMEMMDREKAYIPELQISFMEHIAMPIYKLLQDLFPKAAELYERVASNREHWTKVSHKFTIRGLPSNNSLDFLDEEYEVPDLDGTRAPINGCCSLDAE
COX1, sequence (P05979 25-600): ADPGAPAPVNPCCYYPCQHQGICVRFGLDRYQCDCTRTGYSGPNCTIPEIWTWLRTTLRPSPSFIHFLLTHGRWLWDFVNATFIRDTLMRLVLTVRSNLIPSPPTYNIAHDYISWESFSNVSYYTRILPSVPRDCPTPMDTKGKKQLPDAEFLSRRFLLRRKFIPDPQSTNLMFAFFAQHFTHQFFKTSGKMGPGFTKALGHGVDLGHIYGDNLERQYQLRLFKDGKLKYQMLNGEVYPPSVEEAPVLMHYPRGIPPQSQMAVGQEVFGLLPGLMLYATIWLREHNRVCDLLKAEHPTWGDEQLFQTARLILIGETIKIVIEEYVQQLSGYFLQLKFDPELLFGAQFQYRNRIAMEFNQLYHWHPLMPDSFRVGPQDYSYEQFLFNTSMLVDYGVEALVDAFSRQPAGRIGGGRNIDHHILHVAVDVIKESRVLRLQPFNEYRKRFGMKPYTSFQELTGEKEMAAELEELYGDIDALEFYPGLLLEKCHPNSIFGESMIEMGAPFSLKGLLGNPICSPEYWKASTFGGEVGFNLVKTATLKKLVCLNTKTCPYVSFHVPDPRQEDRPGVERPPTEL

## CC(C)(C)C1=NN(c2ccc(C(=O)O)cc2)C(c2ccc(Cl)cc2Cl)C1 (centres unmarked) [Compound 12, 4-(3-(tert-Butyl)-5-(2,4-dichlorophenyl)-4,5-dihydro-1H-pyrazol-1-yl)benzoic acid]
[1]
  IC50: > 100 µM
[2]
  IC50: > 50 µM
[3]; substrate cAMP
  IC50: > 50 µM
[3]; substrate cGMP
  IC50: > 50 µM
[4]
  tumor cell growth inhibitory activity: broad spectrum growth inhibitory activity
